In patent publication US12122728B2, “Use of substituted 2-thiazolines as nitrification inhibitors” (BASF SE, priority 2018, dated 2024):

Test system: nitrification
Test: Inhibition of nitrification in soil incubation test (ammonium and nitrate content after 14 days)
Conditions: 100 g soil, 10 mg ammoniumsulfate-N, 20° C., 0 and 14 days; for NI* @ 0.3%: compound at 0.3% of nitrogen N; for NI* @ 1%: compound at 1% of nitrogen N; for NI* @ 3%: compound at 3% (of nitrogen N)
Description: The compounds of the invention have been tested as follows in terms of the inhibition of nitrification:
100 g soil is filled into 500 ml plastic bottles (e.g. soil sampled from the field) and is moistened to 50% water holding capacity. The soil is incubated at 20° C. for two weeks to activate the microbial biomass. 1 ml test solution, containing the compound in the appropriate concentration (usually 0.3 or 1% of nitrogen N), or DMSO and 10 mg nitrogen in the form of ammoniumsulfate-N is added to the soil and everything mixed well. Bottles are capped but loosely to allow air exchange. The bottles are then incubated at 20° C. for 0 and 14 days.
For analysis, 300 ml of a 1% K2SO4-solution is added to the bottle containing the soil and shaken for 2 hours in a horizontal shaker at 150 rpm. Then the whole solution is filtered through a filter (Macherey-Nagel Filter MN 807%). Ammonium and nitrate content is then analyzed in the filtrate in an autoanalyzer at 550 nm (Merck, AA11).
The inhibition (NI® a specified concentration) is calculated as follows: […]

Row | Compound | NI* @ 0.3% | NI* @ 1% | NI* @ 3%
1 | CSC1=NCCS1 [Cmpd 1, 2-(Methylthio)-2-thiazoline] | 60.1 | 90.2 | 88
2 | CC#CSC1=NCCS1 [Cmpd 2, 2-(Propynylthio)-2-thiazoline] | – | – | 76.3
3 | SC1=NCCS1 [Cmpd 3, 2-Mercapto-2-thiazoline] | – | 47 | 83.5
4 | CC1(C)CSC(S)=N1 [Cmpd 4, 4,4-Dimethyl-2-mercaptothiazoline] | – | – | 57.5
5 | O=C(Nc1ccccc1)SC1=NCCS1 [Cmpd 5, 2-(Phenylaminocarbonylthio)-2-thiazoline] | – | – | 55
6 | Br.O=C(CSC1=NCCS1)c1ccccc1 [Cmpd 6, 2-(2-Thiazolin-2-ylthio)-acetophenone, hydrobromide] | 21 | 31 | 53.9
7 | Cc1cc(Cl)ccc1SC1=NCCS1 [Cmpd. 7, 2-(4-Chloro-2-methylphenylthio)-2-thiazoline] | – | 25.7 | 48.8
8 | CCNC(=O)SC1=NCCS1 [Cmpd. 8, 2-(Ethylaminocarbonylthio)-2-thiazoline] | – | – | 43.1
9 | CCSC1=NCCS1 [Cmpd. 9, 2-(Ethylthio)-2-thiazoline] | – | 22 | –
10 | COC(=O)CSC1=NCCS1 [Cmpd. 10, (2-Thiazolin-2-ylthio)-acetic acid, methyl ester] | – | 21.5 | –
11 | CN(C)C(=S)SC1NCCS1 (stereo not drawn) [Cmpd. 11, 4,5-dihydro-3H-thiazol-2-yl N,N-dimethylcarbamodithioate] | – | 31.2 | 58.4
